From patent publication EP1834669A1, “Use of specific hydrazone compounds for the treatment of viral infections” (Heinrich-Pette-Institut, priority 2006, dated 2007)
Entries after “also recorded” stand apart in the source; their conditions may differ. Read-outs that look alike come from different tables or passages of the source.

How the values were obtained:
HIV-1 isolate FE9 = assay: Infection of PM1 cells with multidrug-resistant HIV-1 isolate FE9, p24 antigen in supernatant; format: cell-based
Protocol: Culture medium was changed every third day and cells were split 1:1. Cell viabilities and p24 antigen levels were determined at the indicated days. The percentage of inhibition of virus replication in the drug-treated culture as compared with replication in the untreated control culture is shown in the upper panel. The respective virus growth curves as measured by p24 antigen levels in the culture supernatants are shown in the lower panel. n/a; not applicable. (B) Cellular toxicities were determined in the same cultures by alamarBlue™ assay (Serotec) for metabolic activity.
HIV-1 Infection Experiments. […]
(§1) PM1 cells were cultured in RPMI 1640 medium containing 10% fetal calf serum (Pansystems GmbH) and antibiotics (penicillin and streptomycin) and infected with the virus strains exactly as described elsewhere (Hauber, I., Bevec, D., Heukeshoven, J., Krätzer, F., Horn, F., Choidas, A., Harrer, T. & Hauber, J. (2005) J. Clin. Invest 115, 76-85). […] At the same time cell viability (measured by alamarBlue™ assay) and p24 antigen levels in the supernatant (Innotest HIV p24 Antigen mAb; Innogenetics N. V.) were determined. […]

eIF-5A = assay: Hypusine modification of eIF-5A, [14C]putrescine labeling, 2D gel electrophoresis and immunoprecipitation; format: cell-based; conditions: 0.4 µM, PM1 and HeLaCD4-CAT cells
Protocol: Protein separation was performed using equal amounts of radiolabeled extracts, by isoelectric focusing in the first dimension on an immobilized linear pH gradient (IPG) from pH 4.0 to 7.0, which was followed by SDS-PAGE separation in the second dimension. Only molecular mass of < 25.0 kDa is shown in the autoradiographies. Molecular mass standards are indicated in kDa on the right. […] Coomassie blue-staining of the gel served as protein loading control (lower panel).
Two-Dimensional Gel Electrophoresis and Immunoprecipitation Analysis. […] Gel analysis was performed by autoradiography as previously described (Hauber, I., Bevec, D., Heukeshoven, J., Krätzer, F., Horn, F., Choidas, A., Harrer, T. & Hauber, J. (2005) J. Clin. Invest 115, 76-85). For immunoprecipitation of eIF-5A, 2 x 10^6 HeLaCD4-CAT cells (obtained through the NIH AIDS Research and Reference Reagent Program from B.K.Felber and G.N.Pavlakis) were metabolically labeled as above. The various cellular extracts were prepared and analyzed using a rabbit polyclonal anti-eIF-5A antibody (Schatz, O., Oft, M., Dascher, C., Schebesta, M., Rosorius, O., Jaksche, H., Dobrovnik, M., Bevec, D. & Hauber, J. (1998) Proc. Natl. Acad. Sci. U. S. A 95, 1607-1612) as previously described in detail (Hauber, I., Bevec, D., Heukeshoven, J., Krätzer, F., Horn, F., Choidas, A., Harrer, T. & Hauber, J. (2005) J. Clin. Invest 115, 76-85).

HIV-1 Rev pathway = assay: HIV-1 gag-pol mRNA export with GPV-RRE / GPV-4xCTE constructs in transfected HeLaCD4-CAT cells; format: cell-based; conditions: 0.4 µM, HeLaCD4-CAT cells cultured 5 days, 48 hours post-transfection
Excerpt: Transcripts expressed from GPV-RRE access the CRM1/exporti nuclear export pathway. Messages expressed from GPV-4xCTE are transported across the nuclear envelope via the NXF1/TAP pathway. CMV-IE, cytomegalovirus immediate early promoter; pA, polyadenylation site; SD, splice donor; SA, splice acceptor; RRE, Rev reponse element; CTE, constitutive transport element. […] Likewise, cultures were transfected with GVP-4xCTE, a negative control plasmid (to maintain input DNA levels) and the constitutive internal control vector pBC12/CMV/SEAP. At 48 hours post-transfection cell supernatants were assayed for secreted alkaline phosphatase (SEAP) and p24 antigen levels. In addition, p55^Gag- and α-tubulin-specific (protein loading control) Western-blot analyses were performed from representative cell cultures at […].
Transfection Experiments and Plasmids. HeLaCD4-CAT cells were transiently transfected using Lipofectamine and Plus reagent according to the manufacturer's protocol (Invitrogen Corp.). […] At 48 hours post-transfection, cellular lysates were prepared and the levels of β-galactosidase (transfection efficiency control) and luciferase were assayed by ELISA (Roche Applied Science) or luminescence (Promega), respectively. […]

[1] = target: T1, S-adenosylmethionine decarboxylase (SAMDC) (Homo sapiens, UniProt P17707); conditions: dihydrochloride, cited from earlier work
T1 sequence (P17707 68-334 limits assumed): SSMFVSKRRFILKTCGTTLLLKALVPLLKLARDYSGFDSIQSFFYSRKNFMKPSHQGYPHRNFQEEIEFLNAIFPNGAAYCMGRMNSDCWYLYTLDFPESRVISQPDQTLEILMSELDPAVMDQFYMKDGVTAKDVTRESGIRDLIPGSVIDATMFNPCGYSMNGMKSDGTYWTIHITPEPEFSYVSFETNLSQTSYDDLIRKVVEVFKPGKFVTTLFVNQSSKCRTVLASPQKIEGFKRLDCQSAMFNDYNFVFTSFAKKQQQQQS
T1 sequence (P17707 1-67 limits assumed): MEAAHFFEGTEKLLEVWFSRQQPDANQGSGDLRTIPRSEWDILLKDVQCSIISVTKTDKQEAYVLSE

[2] = tested on: PBMCs from a healthy donor; assay: Apoptosis assay, FACS with FITC-coupled annexin V; format: cell-based; conditions: 0.4 µM, 12 days
Protocol: Analysis of cellular toxicity. (A) Cell viability assay. […] (B) Cell-cycle analysis. […] FACS-analysis was performed by DNA-staining with propidiumiodide. (C) Apoptosis-assay.
Analysis of Cellular Toxicity.

HIV-1 BaL = HIV-1 BaL infection of PM1 cells, p24 antigen in supernatant; format: cell-based; conditions: HIV-1 BaL-infected PM1 cells, p24Gag antigen, day 6 and 9 post-infection; dihydrochloride
Protocol: The culture medium was changed at day 3 and 6 post-infection and the cells were split 1:1. p24^Gag antigen levels and cell viabilities were determined at day 6 and 9 post-infection. The percentage of inhibition of virus replication in the drug-treated cell culture, as compared to the untreated controls is shown in the upper panel. Cell viabilities from the same cultures were determined by alamarBlue™ assay (Serotec) and is shown in the lower panel. (B) Gag-specific Western-blot analysis. […] (C) Analysis of de novo infection. […]
as §1

eIF-5A, sequence (P63241 whole entry): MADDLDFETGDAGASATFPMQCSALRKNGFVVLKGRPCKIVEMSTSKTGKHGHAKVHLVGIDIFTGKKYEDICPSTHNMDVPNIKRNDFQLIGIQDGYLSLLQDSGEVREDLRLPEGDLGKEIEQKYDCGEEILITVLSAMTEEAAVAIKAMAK

Substance: 2-[4-(aminoiminomethyl)-2,3-dihydro-1H-inden-1-ylidene]-hydrazinecarboximidamide dihydrochloride
- formation of progeny viruses (HIV-1 isolate FE9; PM1 cells infected with multiple HAART-resistant isolate FE9, 0.4 µM, dihydrochloride): Inhibition of a multiple HAART-resistant HIV-1 isolate; also recorded: inhibited
- virus replication (HIV-1 isolate FE9; applied concentration 0.4 µM): perfectly blocked virus replication
- hypusine-formation in eIF-5A (eIF-5A): prevents hypusine-formation
- HIV-1 Rev pathway (HIV-1 Rev pathway): Specific inhibition
- inhibition of SAMDC [1]: potent inhibitor
- inhibition of SAMDC ([1]; listed as 2-[4-(aminoiminomethyl)-2,3-dihydro-1H-inden-1-ylidene]-hydrazinecarboximidamide): efficient inhibitor
- effects on cell death [2]: did not induce deleterious effects
- HIV-1 BaL replication (HIV-1 BaL): Inhibition of HIV-1 BaL replication; also recorded: pronounced antiviral effects
